Assays:
CDK1 = target: T1, CDK1 (Homo sapiens, UniProt P06493); assay: CDK1 degradation by immunoblotting in OVCAR-8 cells; assay type: cell-based; conditions: 24 h
T1 construct: endogenous in cells; host or cells: OVCAR-8
Protocol: (§1) CDK2 and CDK1 Degradation by Immunoblotting
(§2) Ovarian cancer cell line OVCAR-8 were cultured in 12-well plates in complete growth medium. A serial dilution of each compound was added to individual wells from a 2× stock solution, and cells were cultured for 24 hours. Cells were collected by centrifugation, and cell pellets lysed with addition of chilled RIPA buffer supplemented with protease/phosphatase inhibitors followed by incubation for 20 minutes on ice. Lysates were clarified by centrifugation and 5×SDS loading buffer was added to the supernatant followed by heating to 100° C. for 10 minutes. An aliquot of the samples were separated by SDS-PAGE and transferred to a nitrocellulose membrane. Immunoblotting was performed according to standard procedures using anti-CDK2 primary antibody (Abcam ab32147) at 1:1000 dilution and IRDye 800CW goat anti-Rabbit secondary antibody (LICOR) and imaged using a LICOR Odyssey instrument. Blots were stained with anti-beta-Actin primary antibody (Cell Signaling Technology mAb #4970) for normalization. The normalized CDK2/Actin values were calculated as a percent of DMSO treated cells and plotted to determine the concentration at which 50% of CDK2 signal is decreased (DC50). The determination of CDK1 degradation was determined similarly using anti-CDK1 primary antibody (Abcam ab131450).

CDK2 = target: T2, CDK2 (Homo sapiens, UniProt P24941); assay: CDK2 degradation by immunoblotting in OVCAR-8 cells; assay type: cell-based; conditions: for DC50: 24 h
T2 construct: endogenous in cells; host or cells: OVCAR-8
Protocol: as §1, §2

T1 sequence (P06493 whole entry): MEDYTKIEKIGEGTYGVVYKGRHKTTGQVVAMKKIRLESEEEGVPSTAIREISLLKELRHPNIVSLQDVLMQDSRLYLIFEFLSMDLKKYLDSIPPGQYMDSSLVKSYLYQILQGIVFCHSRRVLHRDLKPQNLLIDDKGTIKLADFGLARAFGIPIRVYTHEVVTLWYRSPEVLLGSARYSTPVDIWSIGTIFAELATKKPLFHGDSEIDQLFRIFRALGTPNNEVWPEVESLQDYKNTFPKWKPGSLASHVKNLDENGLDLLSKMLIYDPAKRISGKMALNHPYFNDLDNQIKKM

SMILES | DC50 (CDK1) | DC50 (CDK2) | CDK2 DC50, (OVCAR-8, 24 h) (CDK2)
Cc1cc(S(=O)(=O)NCCOCCOCCCc2ccc3c(c2)n(C)c(=O)n3C2CCC(=O)NC2=O)ccc1Nc1ncc2cc(C(F)F)c(=O)n([C@@H]3CCC[C@@]3(C)O)c2n1 (stereo partly shown) [I-5] | > 5000 nM | < 10 nM | 
Cc1cc(S(=O)(=O)NCCOCCOCCOCCOCCCc2ccc3c(c2)n(C)c(=O)n3C2CCC(=O)NC2=O)ccc1Nc1ncc2cc(C(F)F)c(=O)n([C@@H]3CCC[C@@]3(C)O)c2n1 (stereo partly shown) [I-7] | > 5000 nM | < 10 nM | 
Cc1cc(S(=O)(=O)NCCOCCOCCOCCOCCNc2cccc3c2C(=O)N(C2CCC(=O)NC2=O)C3=O)ccc1Nc1ncc2cc(C(F)F)c(=O)n([C@@H]3CCC[C@@]3(C)O)c2n1 (stereo partly shown) [I-17] | > 5000 nM | 10 to 100 nM | 
Cn1c(=O)n(C2CCC(=O)NC2=O)c2ccc(CCCOCCOCCOCCOCC(=O)N3CCC(Nc4ncc5cc(C(F)F)c(=O)n([C@@H]6CCC[C@@]6(C)O)c5n4)CC3)cc21 (stereo partly shown) [I-20] |  |  | inactive
Cn1c(=O)n(C2CCC(=O)NC2=O)c2ccc(CCCCCCCCC(=O)N3CCC(Nc4ncc5cc(C(F)F)c(=O)n([C@@H]6CCC[C@@]6(C)O)c5n4)CC3)cc21 (stereo partly shown) [I-22] |  |  | inactive
Cn1c(=O)n(C2CCC(=O)NC2=O)c2ccc(CCCCCCCCCCCC(=O)N3CCC(Nc4ncc5cc(C(F)F)c(=O)n([C@@H]6CCC[C@@]6(C)O)c5n4)CC3)cc21 (stereo partly shown) [I-25] |  |  | inactive
Cn1c(=O)n(C2CCC(=O)NC2=O)c2cccc(CCCCCCCCCCCC(=O)N3CCC(Nc4ncc5cc(C(F)F)c(=O)n([C@@H]6CCC[C@@]6(C)O)c5n4)CC3)c21 (stereo partly shown) [I-26] |  |  | inactive
C[C@@]1(O)CCC[C@H]1n1c(=O)c(C(F)F)cc2cnc(NC3CCN(C(=O)COCCOCCNc4cccc5c4C(=O)N(C4CCC(=O)NC4=O)C5=O)CC3)nc21 (stereo partly shown) [I-27] |  |  | inactive
Cn1c(=O)n(C2CCC(=O)NC2=O)c2cccc(CCCOCCOCC(=O)N3CCC(Nc4ncc5cc(C(F)F)c(=O)n([C@@H]6CCC[C@@]6(C)O)c5n4)CC3)c21 (stereo partly shown) [I-29] |  |  | inactive
Cc1cc(S(=O)(=O)NCCOCCOCCOCCOCCCc2cccc3c2n(C)c(=O)n3C2CCC(=O)NC2=O)ccc1Nc1ncc(Br)c(Nc2cccc(F)c2C(N)=O)n1 (stereo not shown) [I-37, 2-((5-Bromo-2-((4-(N-(15-(1-(2,6-dioxopiperidin-3-yl)-3-methyl-2-oxo-2,3-dihydro-1H-benzo[d]imidazol-4-yl)-3,6,9,12-tetraoxapentadecyl)sulfamoyl)-2-methylphenyl)amino)pyrimidin-4-yl)amino)-6-fluorobenzamide] | 1000 to 5000 nM | 10 to 100 nM | 
CC(C)NC(=O)O[C@@H]1CC[C@H](c2cc(NC(=O)c3ccnn3CCOCCOCCOCCOCCCc3ccc4c(c3)n(C)c(=O)n4C3CCC(=O)NC3=O)n[nH]2)C1 (stereo partly shown) [I-59] | > 5000 nM | 10 to 100 nM | 
CC(C)NC(=O)O[C@@H]1CC[C@H](c2cc(NC(=O)c3cnn(CCOCCOCCOCCCc4cccc5c4n(C)c(=O)n5C4CCC(=O)NC4=O)c3)n[nH]2)C1 (stereo partly shown) [I-72] | > 5000 nM | 10 to 100 nM | 
CC(C)NC(=O)O[C@@H]1CC[C@H](c2cc(CC(=O)c3cnn(CCOCCOCCOCCCc4ccc5c(N6CCC(=O)NC6=O)cncc5c4)c3)[nH]n2)C1 [I-73] | > 5000 nM | 100 to 1000 nM | 
CC(C)NC(=O)O[C@@H]1CC[C@H](c2cc(NC(=O)c3cnn(CCOCCOCCOCCCc4ccn5c(N6CCC(=O)NC6=O)cnc5c4)c3)n[nH]2)C1 [I-74] | > 5000 nM | 100 to 1000 nM | 
CC(C)NC(=O)O[C@@H]1CC[C@H](c2cc(NC(=O)c3cnn(C4CCC(CN(C)C5CCN(Cc6cccc7c6n(C)c(=O)n7C6CCC(=O)NC6=O)CC5)CC4)c3)n[nH]2)C1 (stereo partly drawn) [I-84, (1R,3S)-3-(5-(1-(4-(((1-((1-(2,6-dioxopiperidin-3-yl)-3-methyl-2-oxo-2,3-dihydro-1H-benzo[d]imidazol-4-yl)methyl)piperidin-4-yl)(methyl)amino)methyl)cyclohexyl)-1H-pyrazole-4-carboxamido)-1H-pyrazol-3-yl)cyclopentyl isopropylcarbamate] |  | 1000 to 5000 nM | 
CC(C)NC(=O)O[C@@H]1CC[C@H](c2cc(NC(=O)c3ccnn3CCCCCCCCCc3ccc4c(c3)n(C)c(=O)n4C3CCC(=O)NC3=O)n[nH]2)C1 (stereo partly shown) [I-87] |  |  | inactive
CC(C)NC(=O)O[C@@H]1CC[C@H](c2cc(NC(=O)c3ccnn3CCCCCCCCCCCCc3cccc4c3n(C)c(=O)n4C3CCC(=O)NC3=O)n[nH]2)C1 (stereo partly shown) [I-89] |  |  | inactive
CC(C)NC(=O)O[C@@H]1CC[C@H](c2cc(NC(=O)c3cnn(CCCCCCCCCCCc4cccc5c4n(C)c(=O)n5C4CCC(=O)NC4=O)c3)[nH]n2)C1 (stereo partly shown) [I-97] | 1000 to 5000 nM | 10 to 100 nM | 
CC(C)NC(=O)O[C@@H]1CC[C@H](c2cc(NC(=O)c3cc(COCCCCCCCCCc4ccc5c(c4)n(C)c(=O)n5[C@H]4CCC(=O)NC4=O)nn3C)n[nH]2)C1 [I-99] | > 5000 nM | < 10 nM | 
CC(C)NC(=O)O[C@@H]1CC[C@H](c2cc(NC(=O)c3cc(COCCCCCCCCCc4cccc5c4n(C)c(=O)n5[C@H]4CCC(=O)NC4=O)nn3C)n[nH]2)C1 [I-100] | 100 to 1000 nM | < 10 nM | 

Other lines, results leading:

DC50 (CDK1) | DC50 (CDK2) | CDK2 DC50, (OVCAR-8, 24 h) (CDK2) | SMILES
> 5000 nM | 10 to 100 nM |  | Cc1cc(S(=O)(=O)NCCOCCOCCCc2cccc3c2n(C)c(=O)n3C2CCC(=O)NC2=O)ccc1Nc1ncc2cc(C(F)F)c(=O)n([C@@H]3CCC[C@@]3(C)O)c2n1 (stereo partly shown) [I-8]
100 to 1000 nM | 10 to 100 nM |  | C[C@@]1(O)CCC[C@H]1n1c(=O)c(C(F)F)cc2cnc(NC3CCN(S(=O)(=O)CCCCCCCCCCNc4cccc5c4C(=O)N(C4CCC(=O)NC4=O)C5=O)CC3)nc21 (stereo partly shown) [I-15]
 |  | inactive | Cn1c(=O)n(C2CCC(=O)NC2=O)c2cccc(CCCOCCOCCOCCOCC(=O)N3CCC(Nc4ncc5cc(C(F)F)c(=O)n([C@@H]6CCC[C@@]6(C)O)c5n4)CC3)c21 (stereo partly drawn) [I-21, 3-(4-(1-(4-((6-(Difluoromethyl)-8-((1R,2R)-2-hydroxy-2-methylcyclopentyl)-7-oxo-7,8-dihydropyrido[2,3-d]pyrimidin-2-yl)amino)piperidin-1-yl)-1-oxo-3,6,9,12-tetraoxapentadecan-15-yl)-3-methyl-2-oxo-2,3-dihydro-1H-benzo[d]imidazol-1-yl)piperidine-2,6-dione]
 |  | inactive | Cn1c(=O)n(C2CCC(=O)NC2=O)c2cccc(CCCCCCCCC(=O)N3CCC(Nc4ncc5cc(C(F)F)c(=O)n([C@@H]6CCC[C@@]6(C)O)c5n4)CC3)c21 (stereo partly shown) [I-23]
 |  | inactive | C[C@@]1(O)CCC[C@H]1n1c(=O)c(C(F)F)cc2cnc(NC3CCN(C(=O)COCCOCCOCCOCCNc4cccc5c4C(=O)N(C4CCC(=O)NC4=O)C5=O)CC3)nc21 (stereo partly shown) [I-24]
 |  | inactive | C[C@@]1(O)CCC[C@H]1n1c(=O)c(C(F)F)cc2cnc(NC3CCN(C(=O)CCCCCCCNc4cccc5c4C(=O)N(C4CCC(=O)NC4=O)C5=O)CC3)nc21 (stereo partly shown) [I-28]
> 5000 nM | 10 to 100 nM |  | CC(C)NC(=O)O[C@@H]1CC[C@H](c2cc(NC(=O)c3ccnn3CCOCCOCCOCCOCCCc3cccc4c3n(C)c(=O)n4C3CCC(=O)NC3=O)n[nH]2)C1 (stereo partly shown) [I-55]
1000 to 5000 nM | 10 to 100 nM |  | CC(C)NC(=O)O[C@@H]1CC[C@H](c2cc(NC(=O)c3cnn(CCCCCCCCCCCc4cccn5c(N6CCC(=O)NC6=O)cnc45)c3)n[nH]2)C1 [I-64]
1000 to 5000 nM | 100 to 1000 nM |  | CC(C)NC(=O)O[C@@H]1CC[C@H](c2cc(NC(=O)c3cnn(CCCCCCCCCC#Cc4cccc5c(N6CCC(=O)NC6=O)cncc45)c3)n[nH]2)C1 [I-67]
> 5000 nM | 10 to 100 nM |  | CC(C)NC(=O)O[C@@H]1CC[C@H](c2cc(NC(=O)c3cnn(CCCCCCCCCC#Cc4cccn5c(N6CCC(=O)NC6=O)cnc45)c3)n[nH]2)C1 [I-68]
> 5000 nM | 10 to 100 nM |  | CC(C)NC(=O)O[C@@H]1CC[C@H](c2cc(NC(=O)c3cnn(CCOCCOCCOCCCc4ccc5c(c4)n(C)c(=O)n5C4CCC(=O)NC4=O)c3)n[nH]2)C1 (stereo partly shown) [I-75]
> 5000 nM | 100 to 1000 nM |  | CC(C)NC(=O)O[C@@H]1CC[C@H](c2cc(NC(=O)c3cnn(CCOCCOCCOCCOCCCc4ccc5c(c4)n(C)c(=O)n5C4CCC(=O)NC4=O)c3)[nH]n2)C1 (stereo partly shown) [I-77]
> 5000 nM | 10 to 100 nM |  | CC(C)NC(=O)O[C@@H]1CC[C@H](c2cc(NC(=O)c3ccnn3CCOCCOCCOCCCc3ccc4c(c3)n(C)c(=O)n4C3CCC(=O)NC3=O)[nH]n2)C1 (stereo partly shown) [I-83]
 |  | inactive | CC(C)NC(=O)O[C@@H]1CC[C@H](c2cc(NC(=O)c3cnn(CCOCCOCCCc4ccc5c(c4)n(C)c(=O)n5C4CCC(=O)NC4=O)c3)[nH]n2)C1 (stereo partly shown) [I-85]
> 5000 nM | 10 to 100 nM |  | CC(C)NC(=O)O[C@@H]1CC[C@H](c2cc(NC(=O)c3cnn(CCCCCCCCCc4ccc5c(c4)n(C)c(=O)n5C4CCC(=O)NC4=O)c3)n[nH]2)C1 (stereo partly shown) [I-91]
1000 to 5000 nM | 10 to 100 nM |  | CC(C)NC(=O)O[C@@H]1CC[C@H](c2cc(NC(=O)c3cnn(CCCCCCCCCc4cccc5c4n(C)c(=O)n5C4CCC(=O)NC4=O)c3)[nH]n2)C1 (stereo partly shown) [I-92]
 |  | inactive | CC(C)NC(=O)O[C@@H]1CC[C@H](c2cc(NC(=O)Cc3cnn(C4CCC(CN(C)C5CCN(Cc6cccc7c6n(C)c(=O)n7C6CCC(=O)NC6=O)CC5)CC4)c3)n[nH]2)C1 (stereo partly shown) [I-93]
> 5000 nM | 10 to 100 nM |  | CC(C)NC(=O)O[C@@H]1CC[C@H](c2cc(NC(=O)c3cnn(CCCCCCCCCCCc4ccc5c(c4)n(C)c(=O)n5C4CCC(=O)NC4=O)c3)[nH]n2)C1 (stereo partly shown) [I-96]
